Source: ChEMBL document CHEMBL1132172, “Synthesis of a series of stromelysin-selective thiadiazole urea matrix metalloproteinase inhibitors” (J Med Chem, 1999)

target: Stromelysin-1 (Homo sapiens, UniProt P08254)
Sequence (P08254 whole entry): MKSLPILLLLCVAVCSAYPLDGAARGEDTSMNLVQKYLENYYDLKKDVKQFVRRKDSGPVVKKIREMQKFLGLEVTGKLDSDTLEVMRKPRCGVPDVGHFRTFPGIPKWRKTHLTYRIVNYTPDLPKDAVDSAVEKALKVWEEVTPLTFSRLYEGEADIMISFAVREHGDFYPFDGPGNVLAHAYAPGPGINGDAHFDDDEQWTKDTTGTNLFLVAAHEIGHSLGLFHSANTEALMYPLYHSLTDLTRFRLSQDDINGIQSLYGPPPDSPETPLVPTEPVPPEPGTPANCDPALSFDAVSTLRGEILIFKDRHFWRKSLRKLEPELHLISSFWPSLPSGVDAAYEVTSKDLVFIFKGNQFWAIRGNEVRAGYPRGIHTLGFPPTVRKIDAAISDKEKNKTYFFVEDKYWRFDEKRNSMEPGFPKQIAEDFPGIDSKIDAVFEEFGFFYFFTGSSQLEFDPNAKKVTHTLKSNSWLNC
Description: Inhibitory concentration against Matrix metalloprotease-3

SMILES | IC50 [µM]
CCN(C(=O)NCCc1ccccc1)c1nnc(S)s1 | > 1000
CCNc1nnc(S)s1 | > 2000
Cc1cccc(Cl)c1Nc1nnc(S)s1 | 173
Sc1nnc(NCCCCc2ccccc2)s1 | 318
Cn1nc(NC(=O)NCCc2ccccc2)sc1=S | 694
Sc1nnc(NCc2ccco2)s1 | 289
O=C(NCc1ccccc1)Nc1nncs1 | > 2000
CCCCCCCCCCCCNc1nnc(S)s1 | 97

More lines, now with the values ahead:

IC50 [µM] | SMILES
29 | O=C(Nc1ccc(F)cc1)Nc1nnc(S)s1
190 | Sc1nnc(Nc2ccccc2)s1
97 | Sc1nnc(NCc2ccccc2)s1
23 | O=C(NCc1cccc2ccccc12)Nc1nnc(S)s1
47 | Sc1nnc(NCCc2ccccc2)s1
99 | O=C(Nc1ccccc1)Nc1nnc(S)s1
34 | O=C(NCCCCc1ccccc1)Nc1nnc(S)s1

target: T1, Interstitial collagenase (Homo sapiens, UniProt P03956)
T1 sequence (P03956 whole entry): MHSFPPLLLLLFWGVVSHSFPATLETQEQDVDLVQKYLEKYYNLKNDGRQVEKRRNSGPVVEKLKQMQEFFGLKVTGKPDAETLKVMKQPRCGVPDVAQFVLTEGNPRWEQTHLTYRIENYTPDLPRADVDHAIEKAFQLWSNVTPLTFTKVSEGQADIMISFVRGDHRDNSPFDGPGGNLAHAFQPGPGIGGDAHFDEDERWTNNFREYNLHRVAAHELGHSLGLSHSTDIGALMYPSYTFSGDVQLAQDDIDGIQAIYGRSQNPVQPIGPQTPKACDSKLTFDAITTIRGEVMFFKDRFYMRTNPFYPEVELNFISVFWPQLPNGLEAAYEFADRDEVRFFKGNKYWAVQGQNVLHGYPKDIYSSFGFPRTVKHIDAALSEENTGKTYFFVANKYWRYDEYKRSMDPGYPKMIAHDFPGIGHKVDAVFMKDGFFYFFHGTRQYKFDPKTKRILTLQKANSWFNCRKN
Description: Binding affinity for matrix metalloprotease-1

SMILES | Ki [µM]
CNC(=O)[C@H](CO)NC(=O)Nc1n[nH]c(=S)s1 | > 200
COc1ccc(CNC(=O)[C@H](Cc2ccccc2)NC(=O)Nc2nnc(S)s2)cc1OC | 6.2
CNC(=O)[C@H](CC(C)C)NC(=O)Nc1nnc(S)s1 | > 200
CNC(=O)[C@H](Cc1ccc(F)cc1)NC(=O)Nc1nnc(S)s1 | 8.9
CNC(=O)[C@H](CC1CCCCC1)NC(=O)Nc1n[nH]c(=S)s1 | 67
CNC(=O)[C@H](Cc1c(F)c(F)c(F)c(F)c1F)NC(=O)Nc1nnc(S)s1 | 3
O=C(Nc1nnc(S)s1)N[C@@H](Cc1ccc(F)cc1)C(=O)N1CCN(c2ccccn2)CC1 | 1.8
O=C(Nc1nnc(S)s1)N[C@@H](Cc1ccccc1)C(=O)N1CCN(c2ncccn2)CC1 | 16
CNC(=O)[C@@H](NC(=O)Nc1n[nH]c(=S)s1)c1ccccc1 | 41
O=C(Nc1nnc(S)s1)N[C@@H](Cc1ccccc1)C(=O)N1CCSCC1 | 12
CNC(=O)[C@H](Cc1ccc(O)cc1)NC(=O)Nc1nnc(S)s1 | 21
CNC(=O)[C@H](Cc1ccc(OC)cc1)NC(=O)Nc1nnc(S)s1 | 16
O=C(Nc1nnc(S)s1)N[C@@H](Cc1ccccc1)C(=O)NCc1ccccc1 | 15
CNC(=O)[C@@H](Cc1ccccc1)NC(=O)Nc1n[nH]c(=S)s1 | > 200
CNC(=O)[C@H](Cc1ccc([N+](=O)[O-])cc1)NC(=O)Nc1nnc(S)s1 | 15
COc1ccc(N2CCN(C(=O)[C@H](Cc3ccccc3)NC(=O)Nc3nnc(S)s3)CC2)cc1 | 6
O=C(Nc1nnc(S)s1)N[C@@H](Cc1c(F)c(F)c(F)c(F)c1F)C(=O)N1CCN(c2ccccn2)CC1 | 0.77
O=C(Nc1nnc(S)s1)N[C@@H](Cc1ccccc1)C(=O)N1CCN(Cc2ccccc2)CC1 | 29
CNC(=O)CNC(=O)Nc1n[nH]c(=S)s1 | > 100
O=C(Nc1nnc(S)s1)N[C@@H](Cc1ccccc1)C(=O)N1CCN(c2ccccn2)CC1 | 1.5
O=C(Nc1nnc(S)s1)N[C@@H](Cc1ccccc1)C(=O)N1CCOCC1 | 32
O=C(Nc1nnc(S)s1)N[C@@H](Cc1ccccc1)C(=O)NCC1CCCCC1 | > 200

The next lines start with the values.

Ki [µM] | SMILES
> 200 | O=C(Nc1nnc(S)s1)N[C@@H](Cc1ccccc1)C(=O)O
17 | COC(=O)[C@H](Cc1ccccc1)NC(=O)Nc1nnc(S)s1
31 | CNC(=O)[C@H](Cc1ccccc1)NC(=O)Nc1nnc(S)s1
226 | CN(C)C(=O)[C@H](Cc1ccccc1)NC(=O)Nc1nnc(S)s1
52 | CNC(=O)[C@H](COCc1ccccc1)NC(=O)Nc1nnc(S)s1
> 200 | NC(=O)[C@H](Cc1ccccc1)NC(=O)Nc1nnc(S)s1
20 | O=C(Nc1nnc(S)s1)N[C@@H](Cc1ccccc1)C(=O)N1CCCC1
